For this assay, the target named is T1, CETP (Homo sapiens, UniProt P11597).
T1 sequence (P11597 18-493): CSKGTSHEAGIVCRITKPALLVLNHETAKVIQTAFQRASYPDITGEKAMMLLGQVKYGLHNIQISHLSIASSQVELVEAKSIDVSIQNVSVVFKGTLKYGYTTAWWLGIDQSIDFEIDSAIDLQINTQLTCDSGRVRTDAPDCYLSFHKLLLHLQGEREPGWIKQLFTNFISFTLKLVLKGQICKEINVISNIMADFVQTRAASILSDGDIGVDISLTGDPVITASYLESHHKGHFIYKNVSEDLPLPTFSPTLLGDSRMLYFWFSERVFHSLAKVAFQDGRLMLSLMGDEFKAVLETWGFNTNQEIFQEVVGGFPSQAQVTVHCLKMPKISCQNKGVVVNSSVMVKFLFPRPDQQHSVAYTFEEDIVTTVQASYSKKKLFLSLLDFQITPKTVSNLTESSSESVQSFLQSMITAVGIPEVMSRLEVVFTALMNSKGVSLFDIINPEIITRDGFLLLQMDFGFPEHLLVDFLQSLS
In words: In vitro CETP activity inhibitory effect in whole plasma. Particulars: plasma from healthy subjects containing [3H]CE-HDL3, incubated 4 hours at 37° C.; read-out: CETP activity inhibition in whole plasma IC50. More on the design: Plasma containing [^3H]CE-HDL3 (600,000 dpm/ml) was prepared by adding donor lipoprotein obtained in the above (1) to plasma from healthy subjects; from tissue; host or cells: whole plasma of healthy subjects. It counts as biochemical. The procedure: The fraction thus obtained was dialyzed against a PBS solution [10 mM Na2HPO4/10 mM NaH2PO4/0.15 M NaCl/1 mM EDTA (pH 7.4)]. Then, tritium-labeled cholesterol (10 nM) (50.3 Ci/mM) was dissolved in 95% ethanol and added gradually to the above HDL3 fraction under stirring. The solution was incubated for 18 hours at 37° C. […] After incubation, KBr was added and specific gravity was adjusted to d=1.21 g/ml. […] A sample solution was prepared using a 1:1 solution of N-methylpyrrolidone and polyethyleneglycol 400 as a solvent. […] Based on the inhibition rate (%) of CETP activity, IC50 value of each sample was calculated.
A word on the IC50: it is the concentration that gives 50% inhibition. `CC(C)CCC1(C(=O)Nc2ccccc2SC(=O)C2CCCCC2)CCCCC1` [Example 43]: the IC50 was 49 µM. For `CC1(C(=O)Nc2ccccc2SC(=O)Cc2ccc(Cl)cc2)CCCCC1` [Example 25-21], the IC50 came out at 28 µM. In the case of `CC(C)(C)C(=O)Nc1ccccc1SC(=O)Cc1ccccc1[N+](=O)[O-]` [Example 25-7] it was 46 µM; in that of `CC(C)CCC1(C(=O)Nc2cc(Cl)c(Cl)cc2SC(=O)C(C)(C)C)CCCCCC1` [Example 72], 74 µM; in that of `CC1(C(=O)Nc2ccccc2SC(=O)[C@H](NC(=O)C2(C)CCCCC2)c2ccccc2)CCCCC1` [Example 25-41], 26 µM.

For the compound `CC(C)(C)C(=O)Sc1cc(Cl)c(Cl)cc1NC(=O)[C@]12CCCC[C@@H]1CCCC2` [Example 66-22], the IC50 was 19 µM. In the case of `CC(C)CCC1(C(=O)Nc2ccccc2SC(=O)C(c2ccccc2)c2ccccc2)CCCCC1` [Example 25-47] it was 29 µM; in that of `CC(C)(C)C(=O)Sc1ccccc1NC(=O)C1(C)CCCCC1` [Example 30], 72 µM; in that of `CCC[C@H]1CC[C@H](C(=O)Nc2cc(Cl)c(Cl)cc2SC(=O)C(C)(C)C)CC1` [Example 66-33], 19 µM. In the case of `CC(C)CCC1(C(=O)Nc2cc(Cl)c(Cl)cc2SC(=O)c2ccccc2)CCCCC1` [Example 25-81] it was 14 µM; in that of `CC(C)CCC1(C(=O)Nc2cc(Cl)c(Cl)cc2SC(=O)NC(C)C)CCCCC1` [Example 25-103], 12 µM. In the case of `CC(C)(C)C(=O)Nc1ccccc1SC(=O)Sc1ccccc1NC(=O)C(C)(C)C` [Example 25-94] it was 18 µM; in that of `CC1(C(=O)Nc2ccccc2SC(=O)Sc2ccccc2)CCCCC1` [Example 55], 65 µM; in that of `CCCCC1(C(=O)Nc2ccccc2S)CCCCC1` [Example 17], 8 µM.

On to `CC(=O)N[C@@H](Cc1ccccc1)C(=O)Sc1cc(Cl)c(Cl)cc1NC(=O)C1(CCC(C)C)CCCCC1` [Example 25-76], for which the half-inhibitory concentration (IC50) came out at 36 µM.

Turning to `CC(C)(C)C(=O)Nc1cc(C(F)(F)F)ccc1SC(=O)C(C)(C)C` [Example 57], the half-inhibitory concentration (IC50) came out at 41 µM. In the case of `CC1(C(=O)Nc2cc(Cl)c(Cl)cc2SC(=O)[C@@H](N)Cc2ccccc2)CCCCC1` [Example 66-12] it was 17 µM; in that of `CC(C)CCC1(C(=O)Nc2ccccc2SC(=O)CCCCC(=O)O)CCCCC1` [Example 53], 8 µM.

As for `CCCCC(=O)Nc1ccccc1SSc1ccccc1NC(=O)CCCC` [Example 1-2], the IC50 was found to be 25 µM. With `CC(C(=O)Nc1cc(Cl)c(Cl)cc1SC(=O)C(C)(C)C)C1CCCCC1` (stereo not drawn) [Example 68] the figure was 10 µM. Turning to `CC(C)(C)C(=O)Sc1cc(Cl)c(Cl)cc1NC(=O)C(C)(C)C1CCCCC1` [Example 66-41], the 50% inhibitory concentration (IC50) was found to be 25 µM. In the case of `CC1(C(=O)Nc2ccccc2SC(=O)Cc2ccc(-c3ccccc3)cc2)CCCCC1` [Example 25-26] it was 22 µM. In the case of `CC(C)(C)C(=O)Sc1cc(Cl)c(Cl)cc1NC(=O)C1C(C)(C)C1(C)C` [Example 66-17] it was 18 µM. In the case of `CC(C)(C)OC(=O)Nc1ccccc1CC(=O)Sc1ccccc1NC(=O)C1(C)CCCCC1` [Example 25-34] it was 21 µM; in that of `CC(C)(C)C(=O)Nc1ccccc1SC(=O)Cc1cccc([N+](=O)[O-])c1` [Example 25-8], 25 µM. `CCCCC(=O)Nc1ccccc1SSc1ccccc1NC(=O)CCCC` [Example 1-8]: the IC50 came out at 21 µM. `CC(C)CCC1(C(=O)Nc2ccccc2SSc2ccccc2NC(=O)C2(CCC(C)C)CCCC2)CCCC1` [Example 7]: the half-inhibitory concentration (IC50) was determined as 2 µM. In the case of `CC(C)CCC1(C(=O)Nc2cc(Cl)c(Cl)cc2SC(=O)Cc2ccccc2)CCCCC1` [Example 25-83] it was 18 µM. In the case of `CCC1(C(=O)Nc2ccccc2S)CCCCC1` [Example 15] it was 12 µM; in that of `CC(C)(C)C(=O)Sc1cc(Cl)c(Cl)cc1NC(=O)c1ccncc1` [Example 66-21], 41 µM.
